Data set [1] concerns peripheral blood mononuclear cell proliferation. As to the kind of experiment: Mononuclear cell proliferation assay (thymidine incorporation). In kind it is cell-based, human. As to conditions: for % INHIBITION OF INDUCED PROLIFERATION AT 20 μM PUFA: mitogen-induced PBMC proliferation, one experiment in duplicate, representative of 4; for inhibition at 20 µM: Homo sapiens, read-out: % INHIBITION OF PROLIFERATION
How it is done: Mononuclear Cell Proliferation Assays
Mononuclear cells were separated from peripheral blood of normal human donors as described by Ferrante and Thong (1980, J. Immunol. Methods 36:109)). The mononuclear cells were resuspended in RPMI-1640 containing 20% human AB serum and placed into 96 well microtrays (50 μl per well, cell density 4×10^6 cells/ml). Fatty acid ([…]) was then added in 50ul and pre-incubated with the cells for 30 min at 37° C. in 5% CO2. Mitogen (PHA, ConA, PWM, Staph. aureus) was then added in 100 μl and the cells incubated for 66 hours at 37° C. in 5% CO2 before the addition of tritiated thymidine (1 μCi/well). After a total of 72 h in culture the cells were harvested and proliferation (thymidine incorporation) and supernatant's assayed for the presence of cytokines.

Data set [2] concerns TNFα. As to the kind of experiment: PHA-induced TNFα production (ELISA of mononuclear cell supernatants). In kind it is cell-based. As to conditions: Homo sapiens. How it is done:
(§1) Fatty acid (66pmn) was then added in 50ul and pre-incubated with the cells for 30 min at 37° C. in 5% CO2. Mitogen (PHA, ConA, PWM, Staph. aureus) was then added in 100 μl and the cells incubated for 66 hours at 37° C. in 5% CO2 before the addition of tritiated thymidine (1 μCi/well). After a total of 72 h in culture the cells were harvested and proliferation (thymidine incorporation) and supernatant's assayed for the presence of cytokines.
(§2) Cytokine levels in culture supernatants were determined by specific ELISA using anti-cytokine antibodies. The following cytokine levels were determined TNFα, TNFβ, interferon-γ, IL-1β, IL-2.

Data set [3] concerns DTH induced by SRBC. As to the kind of experiment: Delayed type hypersensitivity against sheep red blood cells. In kind it is in vivo, Female balb/c mice. How it is done: Delayed Type Hypersensitivity Against Sheep Red Blood Cells. Female balb/c mice were administered a priming dose of 100 μl of a 10% haematocrit of sheep red blood cells (SRBC) subcutaneously. Six days later mice were administered 25 μl of a 10% haematocrit of SRBC intradermally into the right hind footpad at time T-0 hrs. The subsequent anti-inflammatory response was evaluated by measuring the thickness of both hind footpads. Standard anti-inflammatory compounds, vehicle and test substances were administered intraperitonieally one hour prior to the SRBC challenge. PUFA compounds were administered in peanut oil.

The test system of data set [4] is psoriasis. The note with it: drugs which block the cyclo-oxygenase pathway; cited from earlier work.
For data set [5], the system named is interferon γ. As to the kind of experiment: PHA-stimulated interferon γ production (ELISA of mononuclear cell supernatants). In kind it is cell-based. The note with it: Homo sapiens, amino acid conjugated PUFA at 20 μM (Table 6), read-out: % inhibition of IFNγ production. How it is done: as §1, §2
Setting [6] is: PHA-induced TNFα, PUFA at 20 μM (Table 4), read-out: % INHIBITION OF CYTOKINE PRODUCTION (TNFα).
Where [7] appears, read: PHA-stimulated, amino acid conjugated PUFA at 20 μM (Table 6), read-out: % inhibition of TNFα production.

Like-named read-outs stand apart in the source and are kept apart here.

`CCCCCC(O)/C=C/C=C\C/C=C\CCCCCOCC(=O)O` (stereo not drawn) [16-OH-β-oxa 21:3 (n-6), Z, Z, E-(13-Hydroxy-6,9,1-octadecatienyloxy) acetic acid]: in data set [1], the “% INHIBITION OF INDUCED PROLIFERATION AT 20 μM PUFA” value is 50%. Besides, the inhibition at 20 µM in data set [2] (setting [6]) stood at 71%. For the same compound, the “% paw volume relative to control” value in data set [3] (10 mg/kg, 3 hours post challenge) stood at 95.03%; in data set [3] (10 mg/kg, 6 hours post challenge), 81.63%; in data set [3] (10 mg/kg, 24 hours post challenge), 86.91%; in data set [3] (50 mg/kg, 3 hours post challenge), 65.01%; in data set [3] (50 mg/kg, 6 hours post challenge) it was 48.95%; in data set [3] (50 mg/kg, 24 hours post challenge), 51.02%. In addition, the “% paw volume relative to control” value was 55.86% in data set [3] (100 mg/kg, 3 hours post challenge); 40.94% in data set [3] (100 mg/kg, 6 hours post challenge); 31.97% in data set [3] (100 mg/kg, 24 hours post challenge).
As for `COc1ccc2c(c1)c(CC(=O)O)c(C)n2C(=O)c1ccc(Cl)cc1` [Indomethacin, reference compound], the exacerbations of psoriasis result in data set [4] was “induce exacerbations of psoriasis”. The “% paw volume relative to control” value in data set [3] (30 mg/kg, 3 hours post challenge) is on record as 89.59%; in data set [3] (30 mg/kg, 6 hours post challenge), 81.40%; in data set [3] (30 mg/kg, 24 hours post challenge), 49.57%.
For `C[C@]12C=CC(=O)C=C1CC[C@@H]1[C@@H]2[C@@H](O)C[C@@]2(C)[C@H]1CC[C@]2(O)C(=O)CO` [Prednisolone, reference compound], the “% paw volume relative to control” value was 58.35% in data set [3] (20 mg/kg, 3 hours post challenge); 60.12% in data set [3] (20 mg/kg, 6 hours post challenge); 100% in data set [3] (20 mg/kg, 24 hours post challenge).
For `CCCCC/C=C\C/C=C\C/C=C\C/C=C\CCCC(=O)N[C@@H](CC(=O)O)C(=O)O` [arachidonic acid-aspartic acid], the figures for the inhibition at 20 µM in data set [5] and in data set [2] (setting [7]) were 68.4% and 38.3%, respectively.
On to `CCCCC/C=C\C/C=C\C/C=C\C/C=C\CCCC(=O)NCC(=O)O` [arachidonic acid-glycine], for which the inhibition at 20 µM in data set [5] is 35.9%; in data set [1], 8%; in data set [2] (setting [7]), 26.6%.
Regarding `CC/C=C\C/C=C\C/C=C\C/C=C\C/C=C\C/C=C\CCC(=O)N[C@@H](CC(=O)O)C(=O)O` [docosahexanoic acid-aspartic acid], the inhibition at 20 µM was found to be 8.3% in data set [5] and 17.4% in data set [2] (setting [7]).
For `CC/C=C\C/C=C\C/C=C\C/C=C\C/C=C\C/C=C\CCC(=O)NCC(=O)O` [docosahexanoic acid-glycine], the inhibition at 20 µM in data set [5] is 44%; in data set [2] (setting [7]), 16.2%.
For the compound `CC/C=C\C/C=C\C/C=C\C/C=C\C/C=C\CCCC(=O)N[C@@H](CC(=O)O)C(=O)O` [eicosapentanoic acid-aspartic acid], the inhibition at 20 µM amounted to 66.1% in data set [5] and 17.1% in data set [2] (setting [7]).
As for `CC/C=C\C/C=C\C/C=C\C/C=C\C/C=C\CCCC(=O)NCC(=O)O` [eicosapentanoic acid-glycine], the inhibition at 20 µM in data set [5] turned out to be 68.2%; in data set [2] (setting [7]), 11%.
In the case of `Cc1ccc(Cl)c(Nc2ccccc2C(=O)O)c1Cl` [meclotenamate], the exacerbations of psoriasis entry in data set [4] is on record as “induce exacerbations of psoriasis”.
Consider `CCCCC1C(=O)N(c2ccccc2)N(c2ccccc2)C1=O` [phenylbutazone], for which the exacerbations of psoriasis result in data set [4] is “induce exacerbations of psoriasis”.
Take `CC/C=C\C/C=C\C/C=C\CCCCCCCC(=O)N[C@@H](CC(=O)O)C(=O)O` [α-linolenic acid-aspartic acid]: the inhibition at 20 µM in data set [5] was found to be 0%; in data set [1] (induced by PHA, PUFA at 20 μM), 7.3%; in data set [2] (setting [7]) it was 0%.
For the compound `CC/C=C\C/C=C\C/C=C\CCCCCCCC(=O)NCC(=O)O` [α-linolenic acid-glycine], the inhibition at 20 µM in data set [5] turned out to be 14.5%; in data set [1] (induced by PHA, PUFA at 20 μM), 15.6%; in data set [2] (setting [7]) it was 29.3%.
As for `CC/C=C\C/C=C\C/C=C\CCCCCCCCOCC(=O)O` [β-oxa 21:3 (n-3), Z, Z, Z (9, 12, 15-Octadecatrienyloxy) acetic acid], in data set [2] (setting [6]), the inhibition at 20 µM stood at 39%.
Regarding `CCCCC/C=C\C/C=C\C/C=C\CCCCCOCC(=O)O` [β-oxa 21:3 (n-6), Z, Z, Z (6,9, 12-Octadecatrienyloxy) acetic acid], in data set [1], the “% INHIBITION OF INDUCED PROLIFERATION AT 20 μM PUFA” value is recorded as 17%. For the same compound, in data set [2] (setting [6]), the inhibition at 20 µM worked out at 38%.
Turning to `CCCCC/C=C\C/C=C\C/C=C\C/C=C\CCCCOCC(=O)O` [β-oxa 23:4 (n-6), Z, Z, Z, Z (5,8, 11, 14-Eicosatetraenyloxy) acetic acid], the inhibition at 20 µM in data set [2] (setting [6]) stood at 25%.
On to `CC/C=C\C/C=C\C/C=C\CCCCCCCCSCC(=O)O` [β-thia 21:3 (n-3), Z,Z,Z,Z-(9,12,15-Octadecatrienylthio)acetic acid], for which the “% INHIBITION OF INDUCED PROLIFERATION AT 20 μM PUFA” value in data set [1] was determined as 28%. In data set [2] (setting [6]), the inhibition at 20 µM came to 17%.
As to `CCCCC/C=C\C/C=C\C/C=C\CCCCCSCC(=O)O` [β-thia 21:3 (n-6), Z,Z,Z,Z-(6,9, 12-Octadecatrienythio)acetica acid], the inhibition at 20 µM in data set [2] (setting [6]) is 17%.
On the same count and under the same terms, for `CCCCC/C=C\C/C=C\C/C=C\C/C=C\CCCCSCC(=O)O` [β-thia 23:4 (n-6), Z,Z,Z,Z-(5,8,11,14-Eicosatetraenylthio) acetic acid] the value was 35%.
For the compound `CC/C=C\C/C=C\C/C=C\C/C=C\C/C=C\C/C=C\CCCSCC(=O)O` [β-thia 25:6 (n-3)], the “% INHIBITION OF INDUCED PROLIFERATION AT 20 μM PUFA” value in data set [1] is 97%. The inhibition at 20 µM in data set [2] (setting [6]) stood at 90%.
Turning to `CCCCC/C=C\C/C=C\C/C=C\CCCCC(=O)N[C@@H](CC(=O)O)C(=O)O` [γ-linolenic acid-aspartic acid], the inhibition at 20 µM in data set [5] came out at 0%; in data set [1] (induced by PHA, PUFA at 20 μM) it was 15.4%; in data set [2] (setting [7]) it was 4.7%.
On the same counts, the results for `CCCCC/C=C\C/C=C\C/C=C\CCCCC(=O)NCC(=O)O` [γ-linolenic acid-glycine] are 0%, 29% and 21.5%.
Consider `CC/C=C\C/C=C\C/C=C\CCCCCCCCSCCC(=O)O` [γ-thia 22:3 (n-3), Z,Z,Z,Z-(9,12,15-Octadecatrienylthio)proponionic acid], for which the inhibition at 20 µM in data set [2] (setting [6]) was 25%.
On the same count and under the same terms, next, `CCCCC/C=C\C/C=C\C/C=C\CCCCCSCCC(=O)O` [γ-thia 22:3 (n-6), Z,Z,Z,Z-(6,9,12-Octadecatrienylthio)propionic acid]: 41%; `CCCCC/C=C\C/C=C\C/C=C\C/C=C\CCCCSCCC(=O)O` [γ-thia 24:4 (n-6), Z,Z,Z,Z-(5,8,11,14-Eicosatetraenylthio) propionic acid]: 34%.

Source of the values: patent publication US6262119A, “Methods of treating immunopathologies using polyunsaturated fatty acids” (priority 1996, dated 2001).
